In paper PMC8704606, “The Artemiside-Artemisox-Artemisone-M1 Tetrad: Efficacies against Blood Stage P. falciparum Parasites, DMPK Properties, and the Case for Artemiside” (Pharmaceutics, 2021):
Where two headings read alike, the source gives them in different places.

What was measured:
[1] = system: Chinese hamster ovary (CHO) cells; set-up: method as in PMID 29866868, PMID 31998692; conditions: other cell lines including CHO cells; read-out: EC50 cytotoxicity; cited from earlier work
[2] = system: late-stage (LG) Pf NF54 gametocytes; set-up: method as in PMID 29866868; conditions: late-stage gametocytes >90% stages IV-V; dose responses obtained at 72 h; ± SEM; cited from earlier work
P. berghei ANKA strain = conditions: cited from earlier work; for outcome of combination with piperaquine: P. berghei ANKA infected mice, ip 0.66 mg/kg with piperaquine 10 mg/kg
[3] = system: P. falciparum asexual blood stage artemisinin-resistant clone PL08-009 (5C) carrying the PfKI3 C580Y mutation; set-up: method as in ref S3; conditions: ref S3, cited from earlier work; for IC50 / IC90: 36 h life cycle, PfKI3 C580Y
[4] = system: asexual blood stages of Pf K1 (drug resistant); set-up: method as in PMID 29866868, PMID 31998692; conditions: cited from earlier work; for IC50: asexual blood stage Pf K1, multidrug resistant, SYBR Green I, ± SEM
[5] = system: P. falciparum asexual blood stage artemisinin-resistant clone ARC08-22 (4G) carrying the PfKI3 C580Y mutation; set-up: method as in ref S3; conditions: ref S3, cited from earlier work; for IC50 / IC90: 48 h life cycle, PfKI3 C580Y
[6] = system: CQ-sensitive P. berghei N strain; conditions: cited from earlier work; for P. berghei ED90 po / P. berghei ED90 sc: Peters four-day test, mice, ref S4 (24); for P. berghei ED90 po: oral daily day 0-3; for P. berghei ED90 sc: subcutaneous daily day 0-3
[7] = system: asexual blood stages of Pf NF54 (drug sensitive); set-up: method as in PMID 29866868, PMID 31998692; conditions: asexual blood stage Pf NF54, CQ sensitive; SYBR Green I; ± SEM; cited from earlier work
[8] = system: CQ-resistant P. yoelii NS strain; conditions: cited from earlier work; for P. yoelii ED90 po / P. yoelii ED90 sc: Peters four-day test, mice, ref S4 (24); for P. yoelii ED90 sc: subcutaneous; for P. yoelii artesunate index sc: ref S4
[9] = system: late-stage (LG) Pf NF54 gametocytes; assay: Luciferase assay, late-stage gametocytes; type: cell-based, Plasmodium falciparum; conditions: for IC50: late-stage gametocytes >90% stages IV-V, dose response obtained at 72 h, ± SEM
Method: For screening artemisox and M1 against early- (EG) and late-stage (LG) gametocytes, the luciferase assay with transgenic NF54-pfs16-GFP-Luc and NF54-Mal8p1.16-GFP-Luc parasite lines was used. With this assay, stage-specificity of gametocytocidal action was established (Table 2). Dose-response curves are in Figures S1d,e and S2d in the Supplementary Material 1. […] As was observed previously for artemisone and artemiside, dose responses for artemisox and M1 could not be obtained at 48 h against late-stage gametocytes.
The same reference compounds with the exception of CQ were used for the early- and late-stage gametocyte assays. Gametocytocidal activity was determined using the transgenic NF54-pfs16-GFP-Luc and NF54-Mal8p1.16-GFP-Luc reporter lines. Compounds were initially screened for activity at a fixed drug concentration of 1 µM, with dose responses subsequently determined using 2-fold serial drug dilutions for 48 h against early-stage gametocytes (day 5 post-induction population, ≥95% stages II–III) and 10-fold serial drug dilutions for 48 h or 72 h against late-stage gametocytes (day 10 post-induction population, ≥90% late-stage [stages IV–V]) (2 to 3% gametocytemia, 2% hematocrit) at 37 °C under 90% N2, 5% CO2, and 5% O2 [6]. No drug washout steps were performed during the drug incubation periods prior to the assays. In all cases, an interference assay was run in parallel to eliminate the possibility of false positives arising through compound interference with the luciferase readout.

W2 (CQ resistant) = system: W2 (CQ resistant); set-up: method as in ref S2; conditions: [3H]-hypoxanthine assay; ref S2; read-out: Antimalarial activities IC50 W2; cited from earlier work
TM-C2B = system: TM-C2B; set-up: method as in ref S2; conditions: [3H]-hypoxanthine assay; ref S2; read-out: Antimalarial activities IC50 TM-C2B; cited from earlier work
[10] = single dose 10 mg/kg, healthy Aotus monkeys; cited from earlier work
[11] = system: TM93-C1088 (atovaquone and CQ resistant); set-up: method as in ref S2; conditions: [3H]-hypoxanthine assay; ref S2; read-out: Antimalarial activities IC50 TM93-C1088; cited from earlier work
[12] = set-up: method as in PMID 18559649; conditions: clinical Phase I trial, subject plasma samples; cited from earlier work
[13] = system: asexual blood stages of Pf K1 (drug resistant); assay: SYBR Green I proliferation assay, asexual blood stages, Pf K1; type: cell-based, Plasmodium falciparum
Method: Dose response curves are in Figures S1a–c and S2a–c in the Supplementary Material 1. Table 1 also includes the historical values for artemiside and artemisone obtained using the same assay.
All other assay conditions are as previously described. Compound working solutions were prepared from a 10 mM stock solution in 100% (vol/vol) dimethyl sulfoxide (DMSO, Sigma-Aldrich) in supplemented RPMI 1640 medium containing AlbuMAX II with a final DMSO concentration of 0.1% (vol/vol), previously determined to be nontoxic to blood stage asexual parasites and gametocytes. The dose-responses of the amino-artemisinins were assayed using a 2-fold serial drug dilution on in vitro 95% ring-stage parasites at 37 °C under 90% N2, 5% CO2, and 5% O2 atmospheric conditions, detecting SYBR green I fluorescence as the proliferative marker following a 96 h drug treatment (1% parasitemia and 1% hematocrit) using a GloMaxR-Multi+ Detection System (Promega). No drug washout steps were performed during drug incubation periods prior to the assays. Activity against the Pf drug-sensitive NF54 strain and the drug-resistant K1 (resistant to CQ, quinine, pyrimethamine, and cycloguanil) and W2 (resistant to CQ, quinine, pyrimethamine, and cycloguanil) strains was evaluated. Data analysis was performed using GraphPad Prism (version 6), intra-assay variability was monitored with Z-factors, and acceptable interassay reproducibility was determined from the percent coefficient of variation (CV).

SMILES | EC50 [1] [nM] | IC50 [2] [nM] | outcome of combination with piperaquine (P. berghei ANKA strain) | IC50 [3] [nM] | IC90 [3] [nM] | RI = IC50 for PL08-09 (5C)/IC50 for W2 [3] | IC50 [4] [nM] | RI (resistance index) = IC50 K1/IC50 NF54 [4] | IC50 [5] [nM] | IC90 [5] [nM] | RI = IC50 for ARC08-22(4G)/IC50 for W2 [5] | P. berghei ED90 po [6] [mg/kg] | P. berghei ED90 sc [6] [mg/kg] | P. berghei artesunate index sc (ED90 artesunate/ED90 compound) ([6]; ref S4) | IC50 [7] [nM] | P. yoelii ED90 po [8] [mg/kg] | P. yoelii ED90 sc [8] [mg/kg] | P. yoelii artesunate index sc [8] | also measured
C[C@H]1[C@H](N2CCSCC2)O[C@@H]2O[C@@]3(C)CC[C@H]4[C@H](C)CC[C@@H]1[C@@]24OO3 [Artemiside 5, Artemiside] | > 241000 | 1.5 ± 0.5 | survival of all mice, with no recrudescence taking place | 0.29 | 0.43 | 0.1 | 1.6 ± 0.4 | 1.47 | 2.43 | 4.85 | 1.1 | 1.9 | 0.51 | 14.1 | 1.11 ± 0.17 | 2.0 | 0.61 | 36.0 | outcome in cerebral malaria model (P. berghei ANKA strain; mice infected with P. berghei ANKA, artemiside 3 mg/kg/d ip for 4 days (days 2–5 post-infection)): complete cure
C[C@H]1[C@H](N2CCS(=O)(=O)CC2)O[C@@H]2O[C@@]3(C)CC[C@H]4[C@H](C)CC[C@@H]1[C@@]24OO3 [Artemisone 7, Artemisone] | > 241000 | 42.4 ± 3.3 | recrudescence with eventual mortality was observed | 0.27 | 0.43 | 0.2 | 1.01 ± 0.19 | 0.85 | 1.62 | 3.38 | 1.0 | 3.1 | 1.5 | 3.2 | 1.2 ± 0.4 | 5.0 | 3.9 | 5.6 | fold decrease in activity against late-stage gametocytes ([9]; late-stage vs early-stage gametocytes, p < 0.05): > 20 fold; IC50 (W2 (CQ resistant)): 1.3 ± 0.5 nM; IC50 (TM-C2B): 1.1 ± 0.4 nM; ex vivo antimalarial activity observable up to (post dose) [10]: up to 7 h; IC50 [11]: 0.7 ± 0.2 nM; fold higher ex vivo antimalarial activity at Tmax than corresponds to plasma concentration by LC-MS/MS [12]: 2.3 fold; P. berghei artesunate index po (ED90 artesunate/ED90 compound) ([6]; ref S4): 2.3
C[C@H]1[C@H](N2CC[S+]([O-])CC2)O[C@@H]2O[C@@]3(C)CC[C@H]4[C@H](C)CC[C@@H]1[C@@]24OO3 [Artemisox 6, Artemisox] | – | – | – | – | – | – | – | – | – | – | – | – | – | – | – | – | – | – | IC50 ([9]; Plasmodium falciparum, NF54, 72 h): 2.7 nM; IC50 [9]: 2.72 ± 0.09 nM; RI (resistance index) = IC50 K1/IC50 NF54 [13]: 0.8; IC50 ([13]; Plasmodium falciparum, asexual blood stage Pf K1, multidrug resistant, SYBR Green I, 96 h, ± SEM): 1.5 ± 0.5 nM; RI ratios ([13]; multidrug resistant K1 and W2 vs NF54): < 1
